Data as given in the OligoGym collection.
Oligonucleotides are written 5' to 3', each unit as a sugar letter and its base; * is a phosphorothioate linkage, no mark a phosphodiester; rarer units and linkages stand in square brackets, end groups in braces. Plain capitals give the bases only. d = 2'-deoxy (DNA); r = 2'-OH (RNA)
Further: test concentration or dose not given here.

What follows are substances tested against MRFAP1 (assay: reporter assay of Huesken 2005). Conditions: siRNA.
In the case of “sense rGrArGrGrUrCrUrUrGrUrUrCrGrUrCrUrGrUrAdTdT / antisense rUrArCrArGrArCrGrArArCrArArGrArCrCrUrCdAdT”, the normalised inhibition (eCFP-eYFP dual reporter) is reported as 72.7%.
In the case of “sense rGrArGrUrGrUrCrGrUrGrCrArGrArCrArArGrCdTdT / antisense rGrCrUrUrGrUrCrUrGrCrArCrGrArCrArCrUrCdAdG”, the normalised inhibition (eCFP-eYFP dual reporter) is reported as 64.8%.
“sense rGrArUrCrArArGrArCrGrCrArGrGrUrArGrArGdTdT / antisense rCrUrCrUrArCrCrUrGrCrGrUrCrUrUrGrArUrCdTdG” gave a normalised inhibition (eCFP-eYFP dual reporter) of 72%.
For “sense rGrCrArArArGrCrArGrCrGrGrArGrArUrGrCrGdTdT / antisense rCrGrCrArUrCrUrCrCrGrCrUrGrCrUrUrUrGrCdTdT”, the normalised inhibition (eCFP-eYFP dual reporter) was 74.8%.
“sense rGrCrGrCrCrCrGrUrGrCrGrCrArArCrCrGrGrGdTdT / antisense rCrCrCrGrGrUrUrGrCrGrCrArCrGrGrGrCrGrCdGdC” was tested, and the normalised inhibition (eCFP-eYFP dual reporter) was 55.3%.
Work on “sense rGrCrUrCrUrUrUrCrUrUrGrGrGrUrGrArCrCrUdTdT / antisense rArGrGrUrCrArCrCrCrArArGrArArArGrArGrCdAdA” yielded a normalised inhibition (eCFP-eYFP dual reporter) of 95.8%.
With “sense rGrCrUrGrArArArCrCrArGrArGrArGrCrCrUrUdTdT / antisense rArArGrGrCrUrCrUrCrUrGrGrUrUrUrCrArGrCdTdT” the normalised inhibition (eCFP-eYFP dual reporter) was 102%.
“sense rGrGrArArArArUrGrCrGrCrUrCrArCrArUrArCdTdT / antisense rGrUrArUrGrUrGrArGrCrGrCrArUrUrUrUrCrCdAdA” gave a normalised inhibition (eCFP-eYFP dual reporter) of 86.7%.
Substance “sense rGrGrArCrArGrCrCrUrArArCrUrCrArUrUrUrUdTdT / antisense rArArArArUrGrArGrUrUrArGrGrCrUrGrUrCrCdCdA” has a normalised inhibition (eCFP-eYFP dual reporter) of 62.8%.
“sense rGrGrArGrArUrGrGrCrGrArArGrArUrGrGrCrCdTdT / antisense rGrGrCrCrArUrCrUrUrCrGrCrCrArUrCrUrCrCdTdG” was tested, and the normalised inhibition (eCFP-eYFP dual reporter) was 72.4%.
In the case of “sense rGrGrArGrGrArUrUrGrUrArUrUrGrUrUrUrCrUdTdT / antisense rArGrArArArCrArArUrArCrArArUrCrCrUrCrCdGdA”, the normalised inhibition (eCFP-eYFP dual reporter) is reported as 105%.
Work on “sense rGrGrArGrUrUrGrGrArGrCrUrCrArCrCrGrCrCdTdT / antisense rGrGrCrGrGrUrGrArGrCrUrCrCrArArCrUrCrCdAdA” yielded a normalised inhibition (eCFP-eYFP dual reporter) of 50%.
“sense rGrGrArUrUrGrUrArUrUrGrUrUrUrCrUrArUrGdTdT / antisense rCrArUrArGrArArArCrArArUrArCrArArUrCrCdTdC” was tested, and the normalised inhibition (eCFP-eYFP dual reporter) was 93.3%.
“sense rGrGrCrArArGrCrUrGrUrGrGrGrArGrArUrGrGdTdT / antisense rCrCrArUrCrUrCrCrCrArCrArGrCrUrUrGrCrCdCdC” gave a normalised inhibition (eCFP-eYFP dual reporter) of 81%.
Substance “sense rGrGrCrCrUrUrArCrArCrGrGrCrUrArGrGrArCdTdT / antisense rGrUrCrCrUrArGrCrCrGrUrGrUrArArGrGrCrCdCdA” has a normalised inhibition (eCFP-eYFP dual reporter) of 60%.
“sense rGrGrGrCrGrGrCrGrCrCrGrArGrCrCrCrCrGrCdTdT / antisense rGrCrGrGrGrGrCrUrCrGrGrCrGrCrCrGrCrCrCdGdC” gave a normalised inhibition (eCFP-eYFP dual reporter) of 74.9%.
Substance “sense rGrGrGrUrGrArCrCrUrGrArUrArGrCrUrCrCrCdTdT / antisense rGrGrGrArGrCrUrArUrCrArGrGrUrCrArCrCrCdAdA” has a normalised inhibition (eCFP-eYFP dual reporter) of 87.1%.
“sense rGrGrUrArUrCrCrCrCrArUrArUrArUrUrUrGrAdTdT / antisense rUrCrArArArUrArUrArUrGrGrGrGrArUrArCrCdAdA” showed a normalised inhibition (eCFP-eYFP dual reporter) of 76.3%.
Work on “sense rGrGrUrCrArArArArCrCrCrUrUrArCrCrArUrGdTdT / antisense rCrArUrGrGrUrArArGrGrGrUrUrUrUrGrArCrCdTdC” yielded a normalised inhibition (eCFP-eYFP dual reporter) of 84.5%.
In the case of “sense rGrGrUrGrCrArGrCrUrCrGrUrGrCrGrGrCrGrGdTdT / antisense rCrCrGrCrCrGrCrArCrGrArGrCrUrGrCrArCrCdAdG”, the normalised inhibition (eCFP-eYFP dual reporter) is reported as 88.4%.
